This is an account of results in patent US20220289816A1, “IMMUNOTHERAPY WITH B*07 RESTRICTED PEPTIDES AND COMBINATION OF PEPTIDES AGAINST CANCERS AND RELATED METHODS” (Immatics Biotechnologies GmbH, priority 2018, published 2022).

The subject of one test is CD8+ T cells. Nature of the test: In vitro immunogenicity: in vitro T-cell priming assay with aAPCs loaded with peptide/MHC complexes and anti-CD28 antibody, pMHC multimer readout. It counts as cell-based, human. As to conditions: pMHC multimer readout after priming of CD8+ T cells. An excerpt:
In order to obtain information regarding the immunogenicity of the TUMAPs of the present invention, the inventors performed investigations using an in vitro T-cell priming assay based on repeated stimulations of CD8+ T cells with artificial antigen presenting cells (aAPCs) loaded with peptide/MHC complexes and anti-CD28 antibody.
In order to perform in vitro stimulations by artificial antigen presenting cells loaded with peptide-MHC complex (pMHC) and anti-CD28 antibody, the inventors first isolated CD8+ T cells from fresh HLA-B*07 leukapheresis products via positive selection using CD8 microbeads (Miltenyi Biotec, Bergisch-Gladbach, Germany) of healthy donors obtained from the University clinics Mannheim, Germany, after informed consent.
PBMCs and isolated CD8+ lymphocytes were incubated in T-cell medium (TCM) until use consisting of RPMI-Glutamax (Invitrogen, Karlsruhe, Germany) supplemented with 10% heat inactivated human AB serum (PAN-Biotech, Aidenbach, Germany), 100 U/ml Penicillin/100 μg/ml Streptomycin (Cambrex, Cologne, Germany), 1 mM sodium pyruvate (CC Pro, Oberdorla, Germany), 20 μg/ml Gentamycin (Cambrex). 2.5 ng/ml IL-7 (PromoCell, Heidelberg, Germany) and 10 U/ml IL-2 (Novartis Pharma, Nürnberg, Germany) were also added to the TCM at this step.
Generation of pMHC/anti-CD28 coated beads, T-cell stimulations and readout was performed in a highly defined in vitro system using four different pMHC molecules per stimulation condition and 8 different pMHC molecules per readout condition.
The purified co-stimulatory mouse IgG2a anti human CD28 Ab 9.3 (Jung et al., 1987) was chemically biotinylated using Sulfo-N-hydroxysuccinimidobiotin as recommended by the manufacturer (Perbio, Bonn, Germany). Beads used were 5.6 μm diameter streptavidin coated polystyrene particles (Bangs Laboratories, Illinois, USA).
800.000 beads/200 μl were coated in 96-well plates in the presence of 4×12.5 ng different biotin-pMHC, washed and 600 ng biotin anti-CD28 were added subsequently in a volume of 200 μl. Stimulations were initiated in 96-well plates by co-incubating 1×10^6 CD8+ T cells with 2×10^5 washed coated beads in 200 μl TCM supplemented with 5 ng/ml IL-12 (PromoCell) for 3 days at 37° C. Half of the medium was then exchanged by fresh TCM supplemented with 80 U/ml IL-2 and incubating was continued for four days at 37° C. This stimulation cycle was performed for a total of three times. For the pMHC multimer readout using 8 different pMHC molecules per condition, a two-dimensional combinatorial coding approach was used as previously described (Andersen et al., 2012) with minor modifications encompassing coupling to five different fluorochromes. Finally, multimeric analyses were performed by staining the cells with Live/dead near IR dye (Invitrogen, Karlsruhe, Germany), CD8-FITC antibody clone SK1 (BD, Heidelberg, Germany) and fluorescent pMHC multimers. For analysis, a BD LSRII SORP cytometer equipped with appropriate lasers and filters was used. Peptide specific cells were calculated as percentage of total CD8+ cells. Evaluation of multimeric analysis was done using the FlowJo software (Tree Star, Oregon, USA). In vitro priming of specific multimer+CD8+ lymphocytes was detected by comparing to negative control stimulations.

A further test concerns the target HLA-B*07 (Homo sapiens, UniProt P01889). Put plainly: MHC binding assay (UV-ligand exchange, ELISA of stabilized MHC complexes). The settings on record: peptide exchange yield on HLA-B*07, UV-ligand exchange. A digest of the protocol: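 Binding is reported as exchange yield: an ELISA with HRP-conjugated anti-β2m (A450, TMB) quantified how much test peptide stabilized MHC after UV cleavage of a photolabile placeholder peptide. Exchange monomers were diluted 100-fold and captured on streptavidin-coated plates for 1 h at 37 °C.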
(In general: ELISA stands for enzyme-linked immunosorbent assay.)

With “1 (RPRSLQCVSL; listed as Homo sapiens) [compound 1]”, in the test on CD8+ T cells (Table 10b), the “Wells positive [%]” value was “+ (<20% = +)”. Besides, in the test with HLA-B*07, the Peptide exchange result was “++++ (>75% = ++++)”. For “3 (MPYVVLTAL; listed as Homo sapiens) [compound 3]”, in the test with CD8+ T cells (Table 10b), the “Wells positive [%]” value is recorded as “+ (<20% = +)”. Also, the Peptide exchange entry with HLA-B*07 is listed as “++++ (>75% = ++++)”.

On to “4 (GPKKFIVKL; listed as Homo sapiens) [compound 4]”, for which the “Wells positive [%]” value in the test with CD8+ T cells (Table 10b) is reported as “+ (<20% = +)”. For the same substance, the Peptide exchange entry in the test with HLA-B*07 is reported as “+++ (>50 = +++)”. On to “5 (LPSLSHCSQL; listed as Homo sapiens) [compound 5]”, for which, in the test on CD8+ T cells (Table 10b), the “Wells positive [%]” value is “++ (20%-49% = ++)”. Moreover, the Peptide exchange entry with HLA-B*07 is listed as “++++ (>75% = ++++)”.

Regarding “6 (LPLNSSTSL; listed as Homo sapiens) [compound 6]”, in the test with CD8+ T cells (Table 10b), the “Wells positive [%]” value was “+ (<20% = +)”. In addition, in the test with HLA-B*07, the Peptide exchange result was “++++ (>75% = ++++)”. For the substance “9 (RPDSRLLEL; listed as Homo sapiens) [compound 9]”, in the test with CD8+ T cells (Table 10b), the “Wells positive [%]” value was “+++ (50%-69% = +++)”. Besides, the Peptide exchange result with HLA-B*07 was “++++ (>75% = ++++)”. For the substance “12 (LPNTGRIGQLL; listed as Homo sapiens) [compound 12]”, the “Wells positive [%]” value with CD8+ T cells (Table 10b) is “++ (20%-49% = ++)”. Also, in the test with HLA-B*07, the Peptide exchange result was “++++ (>75% = ++++)”. With “17 (SPAAPLSPASSL; listed as Homo sapiens) [compound 17]”, the “Wells positive [%]” value in the test with CD8+ T cells (Table 10b) is “+ (<20% = +)”. For the same substance, the Peptide exchange result with HLA-B*07 is “++++ (>75% = ++++)”. For “21 (APSRLLEL; listed as Homo sapiens) [compound 21]”, the “Wells positive [%]” value in the test on CD8+ T cells (Table 10b) is on record as “+ (<20% = +)”. Moreover, in the test with HLA-B*07, the Peptide exchange result is recorded as “++++ (>75% = ++++)”. Regarding “23 (VPRPTSTVGL; listed as Homo sapiens) [compound 23]”, the “Wells positive [%]” value in the test on CD8+ T cells (Table 10b) is “++ (20%-49% = ++)”. Besides, the Peptide exchange entry with HLA-B*07 is “+++ (>50 = +++)”. Consider “24 (VPRPTSTVGLFL; listed as Homo sapiens) [compound 24]”, for which the “Wells positive [%]” value with CD8+ T cells (Table 10b) is “+ (<20% = +)”. Further, in the test with HLA-B*07, the Peptide exchange entry was “++++ (>75% = ++++)”. For “26 (SPSFSSTLLSL; listed as Homo sapiens) [compound 26]”, in that order: “+ (<20% = +)” and “++++ (>75% = ++++)”. For “33 (LPRGLSPARQL; listed as Homo sapiens) [compound 33]”, in that order: “++ (20%-49% = ++)” and “+++ (>50 = +++)”. “38 (RPSFPNLTSF; listed as Homo sapiens) [compound 38]”: the “Wells positive [%]” value with CD8+ T cells (Table 10b) is given as “+ (<20% = +)”. Besides, in the test with HLA-B*07, the Peptide exchange entry is given as “++++ (>75% = ++++)”.

For “45 (TRPWSGPYIL; listed as Homo sapiens) [compound 45]”, in the test with CD8+ T cells (Table 10b), the “Wells positive [%]” value is recorded as “+ (<20% = +)”. The Peptide exchange entry with HLA-B*07 is given as “+++ (>50 = +++)”. Take “48 (RPRYSIGL; listed as Homo sapiens) [compound 48]”: in the test with CD8+ T cells (Table 10b), the “Wells positive [%]” value is listed as “+ (<20% = +)”. In addition, in the test with HLA-B*07, the Peptide exchange result was “+++ (>50 = +++)”. For “49 (APEKARAFL; listed as Homo sapiens) [compound 49]”, in that order: “+ (<20% = +)” and “+++ (>50 = +++)”.

Consider “51 (SPVFYVQTL; listed as Homo sapiens) [compound 51]”, for which, in the test with CD8+ T cells (Table 10b), the “Wells positive [%]” value is given as “+ (<20% = +)”. Further, in the test with HLA-B*07, the Peptide exchange result is listed as “++++ (>75% = ++++)”. On to “388 (SPSVSQLSVL; listed as Homo sapiens) [compound 388]”, for which the “Wells positive [%]” value in the test on CD8+ T cells (Table 10a) was “++++ (>=70% = ++++)”. Still for that read-out and setting: then “389 (APLPRPGAVL; listed as Homo sapiens) [compound 389]”, with “++ (20%-49% = ++)”. On the same count and under the same terms, then “390 (SPRMSGLLSQT; listed as Homo sapiens) [compound 390]”, with “+++ (50%-69% = +++)”; and “391 (APRPASSL; listed as Homo sapiens) [compound 391]”, with “+ (<20% = +)”; and “392 (GPQPWHAAL; listed as Homo sapiens) [compound 392]”, with “++ (20%-49% = ++)”. Regarding “393 (APAAWLRSA; listed as Homo sapiens) [compound 393]”, in the test with CD8+ T cells (Table 10a), the “Wells positive [%]” value is reported as “+++ (50%-69% = +++)”. Regarding “396 (VPDVAQFVL; listed as Homo sapiens) [compound 396]”, in the test on CD8+ T cells (Table 10a), the “Wells positive [%]” value is recorded as “++ (20%-49% = ++)”. As for “398 (SPASRSISL; listed as Homo sapiens) [compound 398]”, the “Wells positive [%]” value with CD8+ T cells (Table 10a) is on record as “+ (<20% = +)”. Regarding “399 (NPFYPEVEL; listed as Homo sapiens) [compound 399]”, the “Wells positive [%]” value with CD8+ T cells (Table 10a) is given as “+ (<20% = +)”. On the same count and under the same terms, then “405 (LPFDGPGGIL; listed as Homo sapiens) [compound 405]”, with “++++ (>=70% = ++++)”; and “406 (LPDGSRVEL; listed as Homo sapiens) [compound 406]”, with “++++ (>=70% = ++++)”; and “407 (FPRLVGPDF; listed as Homo sapiens) [compound 407]”, with “+++ (50%-69% = +++)”. For the substance “408 (YPKDIYSSF; listed as Homo sapiens) [compound 408]”, the “Wells positive [%]” value in the test on CD8+ T cells (Table 10a) is reported as “++ (20%-49% = ++)”. As to “410 (SPRSWIQVQI; listed as Homo sapiens) [compound 410]”, the “Wells positive [%]” value with CD8+ T cells (Table 10a) is recorded as “+ (<20% = +)”. “411 (IPNWARQDL; listed as Homo sapiens) [compound 411]”: the “Wells positive [%]” value in the test on CD8+ T cells (Table 10a) is “++++ (>=70% = ++++)”. As to “414 (KPSESIYSAL; listed as Homo sapiens) [compound 414]”, in the test on CD8+ T cells (Table 10a), the “Wells positive [%]” value is “++ (20%-49% = ++)”. With “415 (LPSDSHFKITF; listed as Homo sapiens) [compound 415]”, the “Wells positive [%]” value in the test with CD8+ T cells (Table 10a) is “++ (20%-49% = ++)”. Still for that read-out and setting: then “418 (RPMTPTQIGPSL; listed as Homo sapiens) [compound 418]”, with “+ (<20% = +)”. Regarding “419 (SPMWHVQQL; listed as Homo sapiens) [compound 419]”, the “Wells positive [%]” value with CD8+ T cells (Table 10a) is “++++ (>=70% = ++++)”. Regarding “420 (SPRWLPVSL; listed as Homo sapiens) [compound 420]”, the “Wells positive [%]” value in the test on CD8+ T cells (Table 10a) was “++++ (>=70% = ++++)”.

Regarding “423 (SPRVYWLGL; listed as Homo sapiens) [compound 423]”, the “Wells positive [%]” value in the test with CD8+ T cells (Table 10a) was “++++ (>=70% = ++++)”. As for “425 (YPRGNHWAVGHL; listed as Homo sapiens) [compound 425]”, the “Wells positive [%]” value in the test with CD8+ T cells (Table 10a) was “++ (20%-49% = ++)”. With “427 (VPSSRILQL; listed as Homo sapiens) [compound 427]”, the “Wells positive [%]” value with CD8+ T cells (Table 10a) was “+++ (50%-69% = +++)”.

Turning to “429 (RPRALRDLQL; listed as Homo sapiens) [compound 429]”, the “Wells positive [%]” value in the test with CD8+ T cells (Table 10a) is “++ (20%-49% = ++)”. As to “430 (RPRALRDLQLL; listed as Homo sapiens) [compound 430]”, in the test with CD8+ T cells (Table 10a), the “Wells positive [%]” value is listed as “+++ (50%-69% = +++)”. “433 (IPEPSAQQL; listed as Homo sapiens) [compound 433]”: in the test on CD8+ T cells (Table 10a), the “Wells positive [%]” value is “+ (<20% = +)”.

Regarding “437 (FPYPYAERL; listed as Homo sapiens) [compound 437]”, the “Wells positive [%]” value in the test with CD8+ T cells (Table 10a) was “+++ (50%-69% = +++)”.

As to “440 (YPRTITPGM; listed as Homo sapiens) [compound 440]”, in the test on CD8+ T cells (Table 10a), the “Wells positive [%]” value is on record as “+ (<20% = +)”. Still for that read-out and setting: then “443 (VPDGVSKVL; listed as Homo sapiens) [compound 443]”, with “+++ (50%-69% = +++)”; and “445 (RPAATAVISL; listed as Homo sapiens) [compound 445]”, with “+ (<20% = +)”.
